Experimental data from ChEMBL document CHEMBL5131418, “Streptooctatins A and B, fusicoccane-type diterpenoids with autophagic activity from Streptomyces sp. KCB17JA11” (Bioorg Med Chem Lett, 2022).
Activity calls are given as the source filed them. The calls are words filed in the database; no cut-off is given here.

Key:
HeLa [1] = experiment: Cytotoxicity against human HeLa cells assessed as reduction in cell viability up to 100 uM; format: toxicity, cell-based
HeLa [2] = experiment: Cytotoxicity against human HeLa cells assessed as reduction in cell number at 100 uM; format: toxicity, cell-based
HeLa [3] = experiment: Induction of autophagy in human HeLa cells assessed as increase in LC3-II protein expression level at 10 to 50 uM uM incubated for 24 hrs by western blot analysis; format: functional, cell-based; conditions: dose 10-50 µM
HeLa [4] = experiment: Induction of autophagy in human HeLa cells stably expressing EGFP-LC3 assessed as increase in EGFP-LC3 puncta formation at 25 uM incubated for 24 hrs by fluorescence microscopic analysis; format: functional, cell-based

SMILES	Activity (HeLa [1])	Activity (HeLa [2])	Activity (HeLa [3])	Activity (HeLa [4])
CC(C)[C@H]1CC[C@]2(C)C[C@@H]3[C@H](CO)C[C@@H](O)[C@H]3[C@@](C)(O)C/C=C/12	Non-Toxic			
CCC(=O)[C@@H](C)[C@H]1O[C@@](O)([C@H](C)C(=O)OC[C@@H](CO)[C@H]2CC[C@]3(C)C[C@@H]4[C@H](CO)C[C@@H](O)[C@H]4[C@@](C)(O)C/C=C/23)[C@H](C)C[C@H]1C	Non-Toxic	Toxic	Active	Active
CCCC(=O)[C@@H](C)[C@H]1O[C@@](O)([C@H](C)C(=O)OC[C@@H](CO)[C@H]2CC[C@]3(C)C[C@@H]4[C@H](CO)C[C@@H](O)[C@H]4[C@@](C)(O)C/C=C/23)[C@H](C)C[C@H]1C	Non-Toxic	Toxic	Active	Active
